The values below come from ChEMBL document CHEMBL1177725, “6-(3,4-dichlorophenyl)-1-[(methyloxy)methyl]-3-azabicyclo[4.1.0]heptane: a new potent and selective triple reuptake inhibitor” (J Med Chem, 2010).

Common to all, as to assay type: cell-based
Test [1] deals with Sodium-dependent serotonin transporter (Homo sapiens, UniProt P31645). Put plainly: Displacement of [N-methyl-3H]citalopram from human recombinant SERT expressed in pig LLCPK cells after 2 hrs by liquid scintillation counting.
In test [2] the target is Sodium-dependent dopamine transporter (Homo sapiens, UniProt Q01959). Put plainly: Displacement of [N-methyl-3H]WIN-35428 from human recombinant DAT expressed in pig LLCPK cells after 2 hrs by liquid scintillation counting.
Test [3] concerns the target Sodium-dependent noradrenaline transporter (Homo sapiens, UniProt P23975). Put plainly: Displacement of [N-methyl-3H]nisoxetine from human recombinant NET expressed in pig LLCPK cells after 2 hrs by liquid scintillation counting.

Chain of Sodium-dependent noradrenaline transporter (P23975 whole entry): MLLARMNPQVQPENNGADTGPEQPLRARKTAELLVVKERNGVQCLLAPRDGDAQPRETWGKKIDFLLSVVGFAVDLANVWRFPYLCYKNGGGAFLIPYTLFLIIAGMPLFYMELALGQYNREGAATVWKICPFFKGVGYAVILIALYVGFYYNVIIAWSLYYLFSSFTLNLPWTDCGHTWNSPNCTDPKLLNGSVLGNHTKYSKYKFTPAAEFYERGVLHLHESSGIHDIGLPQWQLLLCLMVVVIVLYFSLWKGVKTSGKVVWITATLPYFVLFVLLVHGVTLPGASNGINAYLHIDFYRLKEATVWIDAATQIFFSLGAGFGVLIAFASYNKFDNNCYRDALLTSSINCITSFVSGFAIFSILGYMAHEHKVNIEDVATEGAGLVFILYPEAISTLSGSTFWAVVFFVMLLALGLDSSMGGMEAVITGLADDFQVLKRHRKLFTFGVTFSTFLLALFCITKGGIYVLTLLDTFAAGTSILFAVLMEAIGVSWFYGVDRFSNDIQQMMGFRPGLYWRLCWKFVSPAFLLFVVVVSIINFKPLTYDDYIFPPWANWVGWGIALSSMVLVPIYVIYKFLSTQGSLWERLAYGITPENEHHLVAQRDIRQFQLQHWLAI
Chain of Sodium-dependent serotonin transporter (P31645 whole entry): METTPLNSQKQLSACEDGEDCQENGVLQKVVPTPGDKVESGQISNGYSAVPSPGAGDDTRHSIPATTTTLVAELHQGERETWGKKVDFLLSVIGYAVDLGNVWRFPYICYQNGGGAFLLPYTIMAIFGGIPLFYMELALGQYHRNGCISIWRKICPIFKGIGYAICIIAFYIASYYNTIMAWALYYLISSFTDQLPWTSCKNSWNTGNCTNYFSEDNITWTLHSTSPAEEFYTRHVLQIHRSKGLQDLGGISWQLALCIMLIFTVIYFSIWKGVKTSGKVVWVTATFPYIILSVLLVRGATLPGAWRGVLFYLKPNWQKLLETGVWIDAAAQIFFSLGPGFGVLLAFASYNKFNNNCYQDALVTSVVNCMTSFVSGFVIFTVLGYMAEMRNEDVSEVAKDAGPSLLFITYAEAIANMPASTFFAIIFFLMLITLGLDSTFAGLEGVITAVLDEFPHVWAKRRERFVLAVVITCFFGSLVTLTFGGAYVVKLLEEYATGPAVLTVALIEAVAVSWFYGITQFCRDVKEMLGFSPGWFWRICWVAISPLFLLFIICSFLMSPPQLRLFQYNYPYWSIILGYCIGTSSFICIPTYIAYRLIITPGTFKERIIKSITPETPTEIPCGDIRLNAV
Chain of Sodium-dependent dopamine transporter (Q01959 whole entry): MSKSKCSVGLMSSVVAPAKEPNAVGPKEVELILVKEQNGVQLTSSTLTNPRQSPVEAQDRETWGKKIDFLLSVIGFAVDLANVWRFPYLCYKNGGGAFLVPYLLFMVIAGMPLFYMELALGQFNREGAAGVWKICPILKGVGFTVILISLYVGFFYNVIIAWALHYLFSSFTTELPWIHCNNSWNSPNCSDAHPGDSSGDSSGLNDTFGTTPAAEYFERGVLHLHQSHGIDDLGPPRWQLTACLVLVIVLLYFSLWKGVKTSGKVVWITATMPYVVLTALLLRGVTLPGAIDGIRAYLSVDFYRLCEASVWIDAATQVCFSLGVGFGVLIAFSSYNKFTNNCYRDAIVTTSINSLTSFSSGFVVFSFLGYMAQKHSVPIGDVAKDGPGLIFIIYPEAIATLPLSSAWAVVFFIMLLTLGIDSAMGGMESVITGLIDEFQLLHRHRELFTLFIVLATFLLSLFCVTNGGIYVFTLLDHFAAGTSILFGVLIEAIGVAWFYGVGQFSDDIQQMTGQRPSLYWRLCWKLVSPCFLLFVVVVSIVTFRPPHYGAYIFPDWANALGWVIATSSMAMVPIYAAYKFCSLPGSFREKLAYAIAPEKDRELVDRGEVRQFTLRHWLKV

As to `COC[C@@]12CN(C)CC[C@]1(c1ccc(Cl)c(Cl)c1)C2`, the Ki was 12.6 nM in test [1], 31.6 nM in test [2] and 794 nM in test [3].

On to `COC[C@@]12CN(C(C)C)CC[C@]1(c1ccc(Cl)c(Cl)c1)C2`, for which the figures for the Ki in test [1], in test [2] and in test [3] were 631 nM, 1260 nM and 5010 nM, respectively.

For `Clc1ccc([C@@H]2CCNC[C@@]23CCCOC3)cc1Cl`, the Ki in test [1] is 0.316 nM; in test [2], 12.6 nM; in test [3], 3.98 nM.

Regarding `C=CCC(OC)[C@]12CNCC[C@]1(c1ccc(Cl)c(Cl)c1)C2` (mixture of isomers; form 2) [6-(3,4-DICHLOROPHENYL)-1-[1-(METHYLOXY)-3-BUTEN-1-YL]-3-AZABICYCLO[4.1.0]HEPTANE (DIASTEREOMERIC MIX)], the Ki is 1.26 nM in test [1], 1.58 nM in test [2] and 3.98 nM in test [3].

Consider `COC[C@@]12CNCC[C@]1(c1ccc(OC(F)(F)F)cc1)C2` (racemic), for which the inhibitory constant (Ki) was 3.16 nM in test [1], 7940 nM in test [2] and 3160 nM in test [3].

With `COC[C@H]1[C@@H]2CNCC[C@@]21c1ccc(Cl)c(Cl)c1` (racemic), the values for the Ki in test [1], in test [2] and in test [3] were 50.1 nM, 1260 nM and 2000 nM, respectively.

Turning to `COC[C@@H]1[C@@H]2CCNC[C@]12c1ccc(Cl)c(Cl)c1` (racemic), the results for the Ki in test [1], in test [2] and in test [3] were 31.6 nM, 126 nM and 63.1 nM, respectively.

Take `COC[C@@]12CNC[C@H](OC)[C@]1(c1ccc(Cl)c(Cl)c1)C2` (racemic): the Ki in test [1] was 100 nM; in test [2], 501 nM; in test [3], 1260 nM.

Take `COC[C@@]12CNC[C@@H](OC)[C@]1(c1ccc(Cl)c(Cl)c1)C2` (racemic): the Ki in test [1] is 251 nM; in test [2] it was 398 nM; in test [3] it was 1580 nM.

With `COC[C@@H]1[C@@H]2CNCC[C@]12c1ccc(Cl)c(Cl)c1` (racemic), the Ki was 10 nM in test [1], 398 nM in test [2] and 316 nM in test [3].

Take `COC[C@@]12CNCC[C@]1(c1ccc(Cl)cc1)C2` (racemic): the Ki is 15.8 nM in test [1], 251 nM in test [2] and 200 nM in test [3].

On to `COC[C@@]12CNCC[C@]1(c1ccc(F)c(Cl)c1)C2` (racemic), for which the Ki was 1.58 nM in test [1], 158 nM in test [2] and 316 nM in test [3].

As to `COC[C@@]12CNCC[C@]1(c1ccc(Cl)c(C(F)(F)F)c1)C2` (racemic), the Ki in test [1] is 15.8 nM; in test [2], 3160 nM; in test [3], 200 nM.

On to `COC[C@@]12CNCC[C@]1(c1ccc(C(F)(F)F)c(Cl)c1)C2` (racemic), for which the Ki in test [1] was 15.8 nM; in test [2], 1580 nM; in test [3] it was 126 nM.

`COC[C@@]12CN[C@@H](C)C[C@]1(c1ccc(Cl)c(Cl)c1)C2` (racemic): the inhibition constant (Ki) in test [1] is 7.94 nM; in test [2], 39.8 nM; in test [3], 50.1 nM.

As to `COC[C@@]12CNC[C@H](F)[C@]1(c1ccc(Cl)c(Cl)c1)C2` (racemic), the results for the Ki in test [1], in test [2] and in test [3] were 5.01 nM, 100 nM and 100 nM, respectively.

`COC[C@@]12CNC[C@@H](F)[C@]1(c1ccc(Cl)c(Cl)c1)C2` (racemic): the Ki in test [1] was 3.98 nM; in test [2], 100 nM; in test [3], 50.1 nM.

On to `FC(F)(F)COC[C@@]12CNCC[C@]1(c1ccc(Cl)c(Cl)c1)C2` (racemic), for which the Ki was 6.31 nM in test [1], 39.8 nM in test [2] and 79.4 nM in test [3].

`CCOC(=O)[C@@]12CNCC[C@]1(c1ccc(Cl)c(Cl)c1)C2` (racemic): the Ki was 15.8 nM in test [1], 5.01 nM in test [2] and 7.94 nM in test [3].

With `NC(=O)[C@@]12CNCC[C@]1(c1ccc(Cl)c(Cl)c1)C2` (racemic), the Ki is 100 nM in test [1], 251 nM in test [2] and 794 nM in test [3].

In the case of `CC#CNC(=O)[C@@]12CNCC[C@]1(c1ccc(Cl)c(Cl)c1)C2` (racemic), the Ki in test [1] is 100 nM; in test [2] it was 158 nM; in test [3], 501 nM.

As for `Clc1ccc([C@]23CCNC[C@@]2(COCC2CC2)C3)cc1Cl` (racemic) [1-((CYCLOPROPYLMETHOXY)METHYL)-6-(3,4-DICHLOROPHENYL)-3-AZABICYCLO[4.1.0]HEPTANE (ENANTIOMERIC MIX)], the Ki in test [1] is 1.26 nM; in test [2], 12.6 nM; in test [3] it was 50.1 nM.

On to `COC[C@@]12CNCC[C@]1(c1ccc3ccccc3c1)C2` (racemic) [1-(METHOXYMETHYL)-6-(NAPHTHALEN-2-YL)-3-AZABICYCLO[4.1.0]HEPTANE (ENANTIOMERIC MIX)], for which the results for the Ki in test [1], in test [2] and in test [3] were 0.316 nM, 31.6 nM and 12.6 nM, respectively.

Turning to `Clc1ccc([C@]23CNCC[C@H]2C3)cc1Cl` (racemic) [1-PHENYL-3-AZABICYCLO[4.1.0]HEPTANE (STRUCTURAL MIX)], the Ki in test [1] was 126 nM; in test [2] it was 79.4 nM; in test [3] it was 158 nM.

Turning to `CCOC[C@@]12CNCC[C@]1(c1ccc(Cl)c(Cl)c1)C2` (racemic) [6-(3,4-DICHLOROPHENYL)-1-[(ETHYLOXY)METHYL]-3-AZABICYCLO[4.1.0]-HEPTANE (ENANTIOMERIC MIX)], the results for the Ki in test [1], in test [2] and in test [3] were 1.26 nM, 6.31 nM and 10 nM, respectively.

On to `Clc1ccc([C@@]23CCNC[C@@H]2C3)cc1Cl` (racemic) [RAC-1-(3,4-DICHLO ROPHENYL)-3-AZABICYCLO[4.1.0]HEPTANE (ENANTIOMERS)], for which the Ki in test [1] was 25.1 nM; in test [2] it was 50.1 nM; in test [3], 251 nM.

With `OC[C@@]12CNCC[C@]1(c1ccc(Cl)c(Cl)c1)C2` (racemic) [RAC-1-(3,4-DICHLOROPHENYL)-3-AZABICYCLO[4.1.0]HEPTAN-6-YL)METHANOL (STRUCTURAL MIX)], the Ki in test [1] is 20 nM; in test [2], 200 nM; in test [3], 158 nM.

On to `CC(=O)[C@@]12CNCC[C@]1(c1ccc(Cl)c(Cl)c1)C2` (relative stereo), for which the Ki in test [1] was 1 nM; in test [2], 3.98 nM; in test [3], 15.8 nM.

Consider `Clc1ccc([C@@]23CCNC[C@@H]2C3)cc1Cl` (relative stereo) [RAC-1-(3,4-DICHLO ROPHENYL)-3-AZABICYCLO[4.1.0]HEPTANE (ENANTIOMERS)], for which the Ki in test [1] was 39.8 nM; in test [2] it was 50.1 nM; in test [3], 251 nM.

`COC[C@@]12CCNC[C@]1(c1ccc(Cl)c(Cl)c1)C2` (relative stereo) [RAC-1-(3,4-DICHLOROPHENYL)-6-(METHOXYMETHYL)-2-AZABICYCLO[4.1.0]HEPTANE (ENANTIOMERS)]: the results for the Ki in test [1], in test [2] and in test [3] were 12.6 nM, 63.1 nM and 100 nM, respectively.

With `Clc1ccc([C@]23CNCC[C@H]2C3)cc1Cl` (relative stereo; 4) [1-PHENYL-3-AZABICYCLO[4.1.0]HEPTANE (STRUCTURAL MIX)], the figures for the Ki in test [1], in test [2] and in test [3] were 79.4 nM, 39.8 nM and 63.1 nM, respectively.

As to `Clc1ccc([C@]23CNCC[C@H]2C3)cc1Cl` (relative stereo; 5) [1-PHENYL-3-AZABICYCLO[4.1.0]HEPTANE (STRUCTURAL MIX)], the results for the Ki in test [1], in test [2] and in test [3] were 251 nM, 100 nM and 398 nM, respectively.

Take `OC[C@@]12CNCC[C@]1(c1ccc(Cl)c(Cl)c1)C2` (relative stereo; 14) [RAC-1-(3,4-DICHLOROPHENYL)-3-AZABICYCLO[4.1.0]HEPTAN-6-YL)METHANOL (STRUCTURAL MIX)]: the Ki in test [1] is 39.8 nM; in test [2], 100 nM; in test [3], 398 nM.

As to `OC[C@@]12CNCC[C@]1(c1ccc(Cl)c(Cl)c1)C2` (relative stereo; 15) [RAC-1-(3,4-DICHLOROPHENYL)-3-AZABICYCLO[4.1.0]HEPTAN-6-YL)METHANOL (STRUCTURAL MIX)], the Ki in test [1] was 7.94 nM; in test [2] it was 79.4 nM; in test [3] it was 100 nM.

Turning to `CCOC[C@@]12CNCC[C@]1(c1ccc(Cl)c(Cl)c1)C2` (relative stereo; 30) [6-(3,4-DICHLOROPHENYL)-1-[(ETHYLOXY)METHYL]-3-AZABICYCLO[4.1.0]-HEPTANE (ENANTIOMERIC MIX)], the Ki was 10 nM in test [1], 63.1 nM in test [2] and 100 nM in test [3].

Turning to `CCOC[C@@]12CNCC[C@]1(c1ccc(Cl)c(Cl)c1)C2` (relative stereo; 31) [6-(3,4-DICHLOROPHENYL)-1-[(ETHYLOXY)METHYL]-3-AZABICYCLO[4.1.0]-HEPTANE (ENANTIOMERIC MIX)], the Ki in test [1] was 1 nM; in test [2], 3.98 nM; in test [3] it was 7.94 nM.

For `Clc1ccc([C@]23CCNC[C@@]2(COCC2CC2)C3)cc1Cl` (relative stereo; 34) [1-((CYCLOPROPYLMETHOXY)METHYL)-6-(3,4-DICHLOROPHENYL)-3-AZABICYCLO[4.1.0]HEPTANE (ENANTIOMERIC MIX)], the Ki in test [1] is 0.398 nM; in test [2] it was 3.16 nM; in test [3] it was 20 nM.

Turning to `Clc1ccc([C@]23CCNC[C@@]2(COCC2CC2)C3)cc1Cl` (relative stereo; 35) [1-((CYCLOPROPYLMETHOXY)METHYL)-6-(3,4-DICHLOROPHENYL)-3-AZABICYCLO[4.1.0]HEPTANE (ENANTIOMERIC MIX)], the Ki in test [1] was 3.98 nM; in test [2], 63.1 nM; in test [3], 126 nM.

For `Clc1ccc([C@@]23CCNC[C@@H]2C3)cc1Cl` (single isomer, unassigned) [RAC-1-(3,4-DICHLO ROPHENYL)-3-AZABICYCLO[4.1.0]HEPTANE (ENANTIOMERS)], the Ki in test [1] was 12.6 nM; in test [2] it was 25.1 nM; in test [3] it was 100 nM.

What is called Ki is a measure of affinity in units of concentration, obtained from inhibition or displacement.
